# Laboratory results: patent US11560391B2, “Sulfonylurea compounds as inhibitors of interleukin-1 activity” (Genentech, Inc., priority 2018, dated 2023)
# Where two headings read alike, the source gives them in different places.
# Columns and labels:
# NLRP3 inflammasome = molecular target: T1, NLRP3 inflammasome (Homo sapiens, UniProt Q96P20); test: NLRP3 inflammasome activation assay in LPS-primed, nigericin-stimulated PBMCs, IL-1β release; assay type: cell-based; conditions: 10 μM nigericin
# T1 construct: freshly isolated from human peripheral blood from healthy donors; StemCells Technologies; host or cells: primary human PBMCs
# Description: Some of the following assays were used to determine the inhibitory activity of the compounds on the NLRP3 inflammasome using a common inflammasome activation stimuli-nigericin.
# (§1) Human peripheral blood mononuclear cells (PBMCs), consisting of lymphocytes (T, B and NK cells), monocytes and dendritic cells, are freshly isolated from human peripheral blood from healthy donors. Cells are obtained through an IRB approved donor program by iXCells Biotechnologies where all the donors are tested for bacterial and viral infections. Cells are purified from peripheral blood using ficoll gradient centrifugation.
# (§2) Fresh or cryopreserved PMBCs are seeded in V-bottom 96-well plate at 0.5-1×10^5 cells per well and incubated overnight at 37° C. with 5% CO2 in RPMI 1640 medium with GlutaMAX supplement, 4.5 g/L D-glucose, 10% Fetal Bovine Serum (FBS), […] Sodium Pyruvate, 1% Penicillin/Streptomycin, 10 mM HEPES and 0.05 mM of […]. Freshly isolated or cryopreserved KCs cells are seeded in flat-bottom 96-well plates at 0.6-1.5×10^5 cells/well and incubated overnight at 37° C., 5% CO2 in RPMI 1640 Medium with GlutaMAX supplement, FBS, 1% Penicillin/Streptomycin and 10 mM HEPES. The following day, the cells are primed with 100 ng/mL of lipopolysaccharides (LPS; Sigma Aldrich) in FBS-free RPMI 1640 for 3 h. After the priming step, the media is removed and PBMCs are pre-incubated with serial concentrations of test compounds (0.00017-10 uM) or vehicle (DMSO) for 30 min in FBS-free media prior to addition of the NLRP3 activator. Cells are then stimulated with 10 μM Nigericin (Sigma Aldrich; InvivoGen) for 1.5 h. Plates were centrifuged at 1,500 rpm for 3 minutes to pellet cells and supernatant was transferred into new plates for subsequent experiments.
# For ELISA assays cells are seeded into 96-well plates. Post study, supernatants are removed and the levels of mature IL-1β, IL18 and TNFα (Quantikine ELISA, R&D systems) are measured in cell conditioned media by ELISA according to manufacturer's instructions.
# Human frozen PBMCs were purchased from StemCells Technologies. Cells were rapidly thawed in 37° C. water bath and resuspended in fresh assay media consisting of RPMI 1640 Medium containing 1% sodium pyruvate, 10 mM HEPES, 2.5 g/L glucose and 55 μM 2-Mercaptoethanol. Cell density was adjusted to 8.1×10^5 cells/mL. Cells were primed by adding lipopolysaccharide (Invivogen Ultrapure lipopolysaccharide from E. coli, tlrl-3pelps) at a final concentration of 100 ng/mL in cell suspension. 37 μL of cell suspension with LPS was seeded per well of a 384 well plate and incubated for 3 hours at 37° C. and 5% CO2. After priming, PBMCs were preincubated with serially diluted test compounds with starting concentration of 40 μM followed by 2-fold dilution for a 20-point curve or vehicle (DMSO) for 30 min in assay media at 37° C. and 5% CO2. Cells were then stimulated with 10 μM nigericin (Invivogen, tlrl-nig-5) for 90 min at 37° C. and 5% CO2 to activate NLRP3 dependent inflammasome pathway and IL-1β release in cell culture supernatant. Cells were centrifuged at 1200 RPM for 1 min and 40 μL of supernatant was transferred into fresh plates and stored at −80° C. until IL-1β analysis.
# 16 μL of supernatant was added to white 384 well HTRF plates, followed by addition of 4 μL of HTRF cocktail in each well. Plates were quickly centrifuged, sealed and incubated overnight at room temperature. Next day, HTRF signal was read on a Pherastar and ratio of 665/620 was calculated based on manufacturer's protocol to obtain concentration of IL-1β in cell culture supernatant.
# PBMCs = test: CTG (CellTiter-Glo) viability assay of compound-treated LPS and nigericin stimulated PBMCs; assay type: cell-based, human
# Description: as §1, §2
# Viability of compound treated cells is measured using CellTiter-Glo® assay (Promega, Madison, Wis.) that measures the ATP content of cells which is proportional to the number of live cells within a well. This is a counter-screen to establish that the reduction of IL-1β levels in LPS and nigericin stimulated and compound treated cells is not due to cytotoxicity, but rather through the inhibition of the inflammasome pathway. Compounds inhibiting NRLP3 inflammasome activation ultimately increase the viability of LPS and nigericin stimulated cells by blocking NLRP3 mediated pyroptosis that would otherwise lead to cell lysis.
# [1] = LPS 100 ng/mL priming, read-out: IL-1B pIC50 (converted)
# [2] = Homo sapiens, PBMC, LPS and nigericin stimulated cells, read-out: CTG pIC50 (converted)
# [3] = PBMC, LPS priming, read-out: PMBC IL-1β IC50
# [4] = Homo sapiens, PBMC, read-out: PMBC CTG IC50
# [5] = LPS and nigericin stimulated cells, read-out: CTG pIC50 (converted)
# T1 sequence (Q96P20 whole entry): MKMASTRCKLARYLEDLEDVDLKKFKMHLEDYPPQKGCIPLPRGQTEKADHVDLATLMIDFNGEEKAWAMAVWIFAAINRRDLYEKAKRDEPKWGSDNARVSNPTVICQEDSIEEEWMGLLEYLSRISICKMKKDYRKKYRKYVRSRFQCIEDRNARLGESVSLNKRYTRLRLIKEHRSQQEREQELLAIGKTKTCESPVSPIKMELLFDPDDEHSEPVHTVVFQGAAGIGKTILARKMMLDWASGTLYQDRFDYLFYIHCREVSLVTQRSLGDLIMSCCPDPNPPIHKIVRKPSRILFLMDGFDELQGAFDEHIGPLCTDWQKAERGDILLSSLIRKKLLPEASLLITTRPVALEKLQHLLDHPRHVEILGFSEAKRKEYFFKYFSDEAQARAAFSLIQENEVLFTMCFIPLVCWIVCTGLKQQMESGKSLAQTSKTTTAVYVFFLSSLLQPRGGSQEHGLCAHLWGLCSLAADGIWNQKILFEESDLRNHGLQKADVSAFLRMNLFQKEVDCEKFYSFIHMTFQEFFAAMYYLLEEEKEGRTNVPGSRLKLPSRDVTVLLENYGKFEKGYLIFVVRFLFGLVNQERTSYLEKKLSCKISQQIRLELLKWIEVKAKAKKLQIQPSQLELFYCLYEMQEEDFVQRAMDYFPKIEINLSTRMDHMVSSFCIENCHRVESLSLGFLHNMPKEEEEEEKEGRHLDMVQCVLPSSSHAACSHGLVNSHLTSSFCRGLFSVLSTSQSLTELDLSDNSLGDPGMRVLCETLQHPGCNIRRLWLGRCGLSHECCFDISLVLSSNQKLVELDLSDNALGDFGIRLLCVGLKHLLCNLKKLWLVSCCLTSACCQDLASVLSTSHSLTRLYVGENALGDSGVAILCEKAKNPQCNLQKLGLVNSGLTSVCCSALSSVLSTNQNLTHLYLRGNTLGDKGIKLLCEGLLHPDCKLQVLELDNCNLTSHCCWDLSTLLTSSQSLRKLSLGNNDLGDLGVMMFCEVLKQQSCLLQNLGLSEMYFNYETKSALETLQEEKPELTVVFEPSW
IC50 (NLRP3 inflammasome; [1]) [nM],IC50 (NLRP3 inflammasome; [3]) [nM],Structure (SMILES),IC50 (PBMCs; [2]) [nM],IC50 (PBMCs; [4]) [nM],IC50 (PBMCs; [5]) [nM]
1000 to 10000,,O=C(NC1C2CC3CC(C2)C1C3)NS(=O)(=O)c1cnn2c1OCCC2 (stereo not shown),> 10000,,
1000 to 10000,,COc1cc(C(C)C)c(NC(=O)NS(=O)(=O)c2cnn3c2OCC(CNC(C)=O)C3)c(C(C)C)n1 (stereo not shown),1000 to 10000,,
,2080,"O=C(NC1C2CC3CC(C2)CC1C3)NS(=O)(=O)c1cnn2c1OCCC2 (stereo not shown) [Example 3, N-(((1r,3r,5r,7r)-adamantan-2-yl)carbamoyl)-6,7-dihydro-5H-pyrazolo[5,1-b][1,3]oxazine-3-sulfonamide]",,> 10000,
,> 10000,"O=C(NC1(c2ccccc2)CC1)NS(=O)(=O)c1cnn2c1OCCC2 [Example 11, N-((1-phenylcyclopropyl)carbamoyl)-6,7-dihydro-5H-pyrazolo[5,1-b][1,3]oxazine-3-sulfonamide]",,> 10000,
,1790,"CC(C)c1cncc(C(C)C)c1NC(=O)NS(=O)(=O)c1cnn2c1OCCC2 [Example 28, N-((3,5-diisopropylpyridin-4-yl)carbamoyl)-6,7-dihydro-5H-pyrazolo[5,1-b][1,3]oxazine-3-sulfonamide]",,69,
,4380,"CC(C)c1ccnc(C(C)C)c1NC(=O)NS(=O)(=O)c1cnn2c1OCCC2 [Example 31, N-((2,4-diisopropylpyridin-3-yl)carbamoyl)-6,7-dihydro-5H-pyrazolo[5,1-b][1,3]oxazine-3-sulfonamide]",,890,
,590,"CC(C)c1cc(Cl)nc(C(C)C)c1NC(=O)NS(=O)(=O)c1cnn2c1OCCC2 [Example 32, N-((6-chloro-2,4-diisopropylpyridin-3-yl)carbamoyl)-6,7-dihydro-5H-pyrazolo[5,1-b][1,3]oxazine-3-sulfonamide]",,920,
,550,"COc1cc(C(C)C)c(NC(=O)NS(=O)(=O)c2cnn3c2OC[C@@H](OC)C3)c(C(C)C)n1 [Example 37a, Sodium (S)—N-((2,4-diisopropyl-6-methoxypyridin-3-yl)carbamoyl)-6-methoxy-6,7-dihydro-5H-pyrazolo[5,1-b][1,3]oxazine-3-sulfonamide]",,600,
,1220,"CC(C)n1nc2c(c1NC(=O)NS(=O)(=O)c1cnn3c1OCCC3)CCC2 [Example 44, N-((2-isopropyl-2,4,5,6-tetrahydrocyclopenta[c]pyrazol-3-yl)carbamoyl)-6,7-dihydro-5H-pyrazolo[5,1-b][1,3]oxazine-3-sulfonamide]",,> 10000,
,910,"CC(C)c1cc(C2CC2)nc(C(C)C)c1NC(=O)NS(=O)(=O)c1cnn2c1OCCC2 [Example 45, N-((6-cyclopropyl-2,4-diisopropylpyridin-3-yl)carbamoyl)-6,7-dihydro-5H-pyrazolo[5,1-b][1,3]oxazine-3-sulfonamide]",,370,
,2070,"CC(C)c1cc(N(C)C)nc(C(C)C)c1NC(=O)NS(=O)(=O)c1cnn2c1OCCC2 [Example 51, Sodium N-((6-(dimethylamino)-2,4-diisopropylpyridin-3-yl)carbamoyl)-6,7-dihydro-5H-pyrazolo[5,1-b][1,3]oxazine-3-sulfonamide]",,1120,
> 10000,,Cc1onc(-c2ccccc2)c1NC(=O)NS(=O)(=O)c1cnn2c1OCCC2 [drawing 373],> 10000,,
> 10000,,O=C(NC1(c2ccccc2)CC1)NS(=O)(=O)c1cnn2c1OCCC2 [drawing 376],> 10000,,
1000 to 10000,,CC(C)c1nn(C)c(C(C)C)c1NC(=O)NS(=O)(=O)c1cnn2c1OCCC2 [drawing 391],,,
> 10000,,C=C(C)c1cncc(C(=C)C)c1NC(=O)NS(=O)(=O)c1cnn2c1OCCC2 [drawing 392],,,
100 to 1000,,CC(C)c1cncc(C(C)C)c1NC(=O)NS(=O)(=O)c1cnn2c1OCCC2 [drawing 393],100 to 1000,,
1000 to 10000,,CC(C)c1cncc(C(C)C)c1NC(=O)NS(=O)(=O)c1cnn2c1OCCC2 [drawing 394],,,< 100
> 10000,,O=C(Nc1c2c(n3c1CCC3)CCCC2=O)NS(=O)(=O)c1cnn2c1OCCC2 [drawing 395],,,
100 to 1000,,COc1cc(C(C)C)c(NC(=O)NS(=O)(=O)c2cnn3c2OCCC3)c(C(C)C)n1 [drawing 396],100 to 1000,,

IC50 (NLRP3 inflammasome; [1]) [nM],IC50 (NLRP3 inflammasome; [3]) [nM],Structure (SMILES),IC50 (PBMCs; [2]) [nM],IC50 (PBMCs; [4]) [nM],IC50 (PBMCs; [5]) [nM]
1000 to 10000,,CC(C)c1ccnc(C(C)C)c1NC(=O)NS(=O)(=O)c1cnn2c1OCCC2 [drawing 397],,,1000 to 10000
1000 to 10000,,CC(C)c1ccnc(C(C)C)c1NC(=O)NS(=O)(=O)c1cnn2c1OCCC2 [drawing 398],,,100 to 1000
100 to 1000,,CC(C)c1cc(Cl)nc(C(C)C)c1NC(=O)NS(=O)(=O)c1cnn2c1OCCC2 [drawing 399],100 to 1000,,
1000 to 10000,,CC(C)c1nn(C(C)C)c(C(C)C)c1NC(=O)NS(=O)(=O)c1cnn2c1OCCC2 [drawing 400],1000 to 10000,,
1000 to 10000,,CCn1nc(C(C)C)c(NC(=O)NS(=O)(=O)c2cnn3c2OCCC3)c1C(C)C [drawing 401],100 to 1000,,
100 to 1000,,CC(C)c1nn(CC2CC2)c(C(C)C)c1NC(=O)NS(=O)(=O)c1cnn2c1OCCC2 [drawing 402],100 to 1000,,
> 10000,,CC(C)(C)c1cc(NC(=O)NS(=O)(=O)c2cnn3c2OCCC3)n(C(C)(C)C)n1 [drawing 403],,,
100 to 1000,,COc1cc(C(C)C)c(NC(=O)NS(=O)(=O)c2cnn3c2OC[C@@H](OC)C3)c(C(C)C)n1 [drawing 404],100 to 1000,,
1000 to 10000,,CO[C@@H]1COc2c(S(=O)(=O)NC(=O)Nc3c(C(C)C)nn(C)c3C(C)C)cnn2C1 [drawing 405],100 to 1000,,
1000 to 10000,,CCn1nc(C(C)C)c(NC(=O)NS(=O)(=O)c2cnn3c2OC[C@@H](OC)C3)c1C(C)C [drawing 406],100 to 1000,,
100 to 1000,,CN[C@@H]1COc2c(S(=O)(=O)NC(=O)Nc3c(C(C)C)cc(OC)nc3C(C)C)cnn2C1 [drawing 408],< 100,,
< 100,,COc1cc(C(C)C)c(NC(=O)NS(=O)(=O)c2cnn3c2OC[C@@H](N2CC(OC)C2)C3)c(C(C)C)n1 [drawing 409],100 to 1000,,
> 10000,,Cc1cc(NC(=O)NS(=O)(=O)c2cnn3c2OCCC3)n(C(C)C)n1 [drawing 410],,,
1000 to 10000,,CC(C)n1nc2c(c1NC(=O)NS(=O)(=O)c1cnn3c1OCCC3)CCC2 [drawing 411],> 10000,,
100 to 1000,,CC(C)c1cc(C2CC2)nc(C(C)C)c1NC(=O)NS(=O)(=O)c1cnn2c1OCCC2 [drawing 412],100 to 1000,,
> 10000,,CC1(C)COc2c(S(=O)(=O)NC(=O)NC3CCCCc4ccccc43)cnn2C1 (stereo not shown) [drawing 413],,,
1000 to 10000,,CC(C)c1cc(C#N)nc(C(C)C)c1NC(=O)NS(=O)(=O)c1cnn2c1OCCC2 [drawing 416],100 to 1000,,
1000 to 10000,,CCOc1cc(C(C)C)c(NC(=O)NS(=O)(=O)c2cnn3c2OCCC3)c(C(C)C)n1 [drawing 417],1000 to 10000,,
1000 to 10000,,CC(C)c1cc(N(C)C)nc(C(C)C)c1NC(=O)NS(=O)(=O)c1cnn2c1OCCC2 [drawing 418],100 to 1000,,
